Tests used:
[1] = target: T1, PI3K delta (Homo sapiens, UniProt O00329); test: PI3K delta enzymatic assay (Kinase-Glo luminescence); assay type: biochemical; conditions: Enzymatic Data
T1 construct: for the full-length p110-d subunit are generated and fused by overlapping PCR; p85(iSH2) fusion partner (same polypeptide; see partner chain) (N); Gly linker (N); His tag (C); made in house; host or cells: baculovirus; Tn5 (Trichoplusia ni) or TiniPro insect cells
Procedure, shortened: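 10 nM PI3Kδ p85(iSH2)-Gly linker-full-length p110δ His-tagged construct with 10 µg/mL phosphatidylinositol and 1 µM ATP. Buffer: 10 mM Tris pH 7.5, 3 mM MgCl2, 50 mM NaCl, 0.05% CHAPS, 1 mM DTT; 60 min RT. Kinase-Glo luminescence; IC50 from 4-parameter logistic fit over 8 concentrations.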

[2] = target: T2, PI3K beta (Homo sapiens, UniProt P42338); test: PI3K beta enzymatic assay (Kinase-Glo luminescence); assay type: biochemical; conditions: Enzymatic Data
T2 construct: for the full-length p110-b subunit are generated and fused by overlapping PCR; p85(iSH2) fusion partner (same polypeptide; see partner chain) (N); Gly linker (N); His tag (C); made in house; host or cells: baculovirus; Tn5 (Trichoplusia ni) or TiniPro insect cells
Procedure, shortened: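 Full-length p110β with p85 iSH2 (His-tagged) at 25 nM, 10 μg/mL phosphatidylinositol and 1 μM ATP, in pH 7.5 Tris with 3 mM MgCl2, 60 min at room temperature. Remaining ATP read by Kinase-Glo luminescence; IC50 from 4-parameter logistic fit over 8 concentrations.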

[3] = target: T3, PI3K gamma (Homo sapiens, UniProt P48736); test: PI3K gamma enzymatic assay (Kinase-Glo luminescence); assay type: biochemical; conditions: Enzymatic Data
T3 construct: His tag (C); made in house; host or cells: construct from Roger Williams lab (MRC LMB); baculovirus (pVL1393); Tn5 (Trichoplusia ni) or TiniPro insect cells
Procedure, shortened: (§1)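 Kinase-Glo ATP-depletion luminescence with 1 μM ATP and 10 μg/mL phosphatidylinositol in pH 7.5 Tris buffer; 10 nM PI3Kα incubated 60 min, 150 nM PI3Kγ 120 min, at room temperature. IC50 by 4-parameter logistic fit over 8 concentrations.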

[4] = target: T4, PI3K alfa (Homo sapiens, UniProt P42336); test: PI3K alfa enzymatic assay (Kinase-Glo luminescence); assay type: biochemical; conditions: Enzymatic Data
T4 construct: p85(iSH2) fusion partner (same polypeptide; see partner chain) (N); 12x Gly linker (N); His tag (C); made in house; host or cells: baculovirus; Tn5 (Trichoplusia ni) or TiniPro insect cells
Procedure, shortened: as §1

T1 sequence (O00329 with tags, fused parts or gaps limits assumed): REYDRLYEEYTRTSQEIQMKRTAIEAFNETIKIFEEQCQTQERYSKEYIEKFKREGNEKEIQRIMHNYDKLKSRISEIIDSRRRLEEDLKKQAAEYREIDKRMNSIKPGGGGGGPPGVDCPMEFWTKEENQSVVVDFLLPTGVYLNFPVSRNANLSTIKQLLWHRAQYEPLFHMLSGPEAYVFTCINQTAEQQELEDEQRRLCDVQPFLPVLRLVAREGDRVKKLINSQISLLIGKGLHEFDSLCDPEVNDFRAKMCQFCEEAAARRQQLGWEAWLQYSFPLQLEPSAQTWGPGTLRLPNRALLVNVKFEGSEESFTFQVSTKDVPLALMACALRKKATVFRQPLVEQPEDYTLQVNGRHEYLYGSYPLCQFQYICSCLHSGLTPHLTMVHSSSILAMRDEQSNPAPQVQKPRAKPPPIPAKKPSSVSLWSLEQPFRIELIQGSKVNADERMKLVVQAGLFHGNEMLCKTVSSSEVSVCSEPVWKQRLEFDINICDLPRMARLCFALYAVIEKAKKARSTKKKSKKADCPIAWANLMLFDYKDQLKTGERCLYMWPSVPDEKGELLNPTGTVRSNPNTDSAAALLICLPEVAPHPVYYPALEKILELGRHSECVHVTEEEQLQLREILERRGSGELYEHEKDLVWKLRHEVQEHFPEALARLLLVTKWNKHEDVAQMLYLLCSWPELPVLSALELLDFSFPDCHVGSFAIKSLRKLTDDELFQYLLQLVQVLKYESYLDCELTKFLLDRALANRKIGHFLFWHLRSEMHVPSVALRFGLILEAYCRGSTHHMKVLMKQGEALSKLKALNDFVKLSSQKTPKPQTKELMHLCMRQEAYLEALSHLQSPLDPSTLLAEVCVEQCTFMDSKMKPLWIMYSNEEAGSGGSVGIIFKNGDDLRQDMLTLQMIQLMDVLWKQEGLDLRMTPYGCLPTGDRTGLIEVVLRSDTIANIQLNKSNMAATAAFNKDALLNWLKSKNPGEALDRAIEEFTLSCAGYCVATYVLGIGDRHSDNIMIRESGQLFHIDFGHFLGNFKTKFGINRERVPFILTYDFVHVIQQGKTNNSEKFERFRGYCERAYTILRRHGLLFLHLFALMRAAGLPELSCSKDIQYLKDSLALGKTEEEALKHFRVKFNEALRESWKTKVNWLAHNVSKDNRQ
T2 sequence (P42338 with tags, fused parts or gaps limits assumed): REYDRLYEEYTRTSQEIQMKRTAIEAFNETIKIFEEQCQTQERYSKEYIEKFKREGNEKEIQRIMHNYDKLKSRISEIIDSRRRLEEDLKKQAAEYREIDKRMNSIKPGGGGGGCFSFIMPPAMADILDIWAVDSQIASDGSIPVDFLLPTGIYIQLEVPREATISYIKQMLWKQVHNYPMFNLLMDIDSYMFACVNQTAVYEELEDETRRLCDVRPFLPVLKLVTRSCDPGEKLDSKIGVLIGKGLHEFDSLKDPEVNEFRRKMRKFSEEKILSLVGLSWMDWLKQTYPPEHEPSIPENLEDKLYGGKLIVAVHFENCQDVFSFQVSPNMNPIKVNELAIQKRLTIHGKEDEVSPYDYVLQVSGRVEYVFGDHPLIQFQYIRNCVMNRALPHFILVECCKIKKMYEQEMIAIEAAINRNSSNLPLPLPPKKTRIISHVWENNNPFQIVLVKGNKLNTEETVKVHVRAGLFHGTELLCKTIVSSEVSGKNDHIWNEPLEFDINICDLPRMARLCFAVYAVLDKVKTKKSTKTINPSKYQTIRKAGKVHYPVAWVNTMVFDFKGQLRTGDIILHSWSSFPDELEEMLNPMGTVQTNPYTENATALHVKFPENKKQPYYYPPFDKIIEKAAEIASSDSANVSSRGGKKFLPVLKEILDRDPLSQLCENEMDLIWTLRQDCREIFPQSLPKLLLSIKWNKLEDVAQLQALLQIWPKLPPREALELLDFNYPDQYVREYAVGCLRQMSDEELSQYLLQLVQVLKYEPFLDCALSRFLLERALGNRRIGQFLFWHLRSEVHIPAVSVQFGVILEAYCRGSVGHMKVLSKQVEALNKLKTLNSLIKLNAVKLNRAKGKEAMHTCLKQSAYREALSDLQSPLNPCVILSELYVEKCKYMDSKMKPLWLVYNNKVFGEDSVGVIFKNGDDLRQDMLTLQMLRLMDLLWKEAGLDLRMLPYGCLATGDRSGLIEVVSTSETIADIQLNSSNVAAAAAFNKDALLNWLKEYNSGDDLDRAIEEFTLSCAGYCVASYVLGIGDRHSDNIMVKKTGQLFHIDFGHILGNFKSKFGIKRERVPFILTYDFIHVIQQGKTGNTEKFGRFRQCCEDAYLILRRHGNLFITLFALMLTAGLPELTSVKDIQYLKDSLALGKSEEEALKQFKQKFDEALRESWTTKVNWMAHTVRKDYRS
T3 sequence (P48736 144-1102 limits assumed): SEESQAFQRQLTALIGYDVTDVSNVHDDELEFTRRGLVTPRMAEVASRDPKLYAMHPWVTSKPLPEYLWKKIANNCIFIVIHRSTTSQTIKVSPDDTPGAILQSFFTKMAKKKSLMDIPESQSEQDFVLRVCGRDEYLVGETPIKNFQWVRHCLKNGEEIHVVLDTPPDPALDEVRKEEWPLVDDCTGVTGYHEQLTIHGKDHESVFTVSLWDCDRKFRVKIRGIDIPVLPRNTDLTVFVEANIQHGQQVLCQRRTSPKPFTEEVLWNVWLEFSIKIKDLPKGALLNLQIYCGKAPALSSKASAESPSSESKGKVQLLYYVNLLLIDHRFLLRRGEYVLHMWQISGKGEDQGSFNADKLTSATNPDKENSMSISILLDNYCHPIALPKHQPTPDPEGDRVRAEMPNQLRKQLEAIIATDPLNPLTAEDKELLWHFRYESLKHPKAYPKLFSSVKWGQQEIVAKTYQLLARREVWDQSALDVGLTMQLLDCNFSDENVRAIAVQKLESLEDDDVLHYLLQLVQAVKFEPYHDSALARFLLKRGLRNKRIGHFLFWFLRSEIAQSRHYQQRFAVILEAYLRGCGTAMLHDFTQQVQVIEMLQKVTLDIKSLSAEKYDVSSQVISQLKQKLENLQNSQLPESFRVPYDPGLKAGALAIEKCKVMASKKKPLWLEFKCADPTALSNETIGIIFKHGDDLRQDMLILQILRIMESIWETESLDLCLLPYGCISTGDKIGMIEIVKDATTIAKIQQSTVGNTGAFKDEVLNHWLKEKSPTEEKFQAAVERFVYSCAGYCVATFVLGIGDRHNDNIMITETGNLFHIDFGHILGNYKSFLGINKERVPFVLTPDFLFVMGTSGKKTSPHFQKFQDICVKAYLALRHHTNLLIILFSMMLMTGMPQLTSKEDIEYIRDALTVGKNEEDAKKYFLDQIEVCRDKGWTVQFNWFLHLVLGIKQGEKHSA
T4 sequence (P42336 with tags, fused parts or gaps limits assumed): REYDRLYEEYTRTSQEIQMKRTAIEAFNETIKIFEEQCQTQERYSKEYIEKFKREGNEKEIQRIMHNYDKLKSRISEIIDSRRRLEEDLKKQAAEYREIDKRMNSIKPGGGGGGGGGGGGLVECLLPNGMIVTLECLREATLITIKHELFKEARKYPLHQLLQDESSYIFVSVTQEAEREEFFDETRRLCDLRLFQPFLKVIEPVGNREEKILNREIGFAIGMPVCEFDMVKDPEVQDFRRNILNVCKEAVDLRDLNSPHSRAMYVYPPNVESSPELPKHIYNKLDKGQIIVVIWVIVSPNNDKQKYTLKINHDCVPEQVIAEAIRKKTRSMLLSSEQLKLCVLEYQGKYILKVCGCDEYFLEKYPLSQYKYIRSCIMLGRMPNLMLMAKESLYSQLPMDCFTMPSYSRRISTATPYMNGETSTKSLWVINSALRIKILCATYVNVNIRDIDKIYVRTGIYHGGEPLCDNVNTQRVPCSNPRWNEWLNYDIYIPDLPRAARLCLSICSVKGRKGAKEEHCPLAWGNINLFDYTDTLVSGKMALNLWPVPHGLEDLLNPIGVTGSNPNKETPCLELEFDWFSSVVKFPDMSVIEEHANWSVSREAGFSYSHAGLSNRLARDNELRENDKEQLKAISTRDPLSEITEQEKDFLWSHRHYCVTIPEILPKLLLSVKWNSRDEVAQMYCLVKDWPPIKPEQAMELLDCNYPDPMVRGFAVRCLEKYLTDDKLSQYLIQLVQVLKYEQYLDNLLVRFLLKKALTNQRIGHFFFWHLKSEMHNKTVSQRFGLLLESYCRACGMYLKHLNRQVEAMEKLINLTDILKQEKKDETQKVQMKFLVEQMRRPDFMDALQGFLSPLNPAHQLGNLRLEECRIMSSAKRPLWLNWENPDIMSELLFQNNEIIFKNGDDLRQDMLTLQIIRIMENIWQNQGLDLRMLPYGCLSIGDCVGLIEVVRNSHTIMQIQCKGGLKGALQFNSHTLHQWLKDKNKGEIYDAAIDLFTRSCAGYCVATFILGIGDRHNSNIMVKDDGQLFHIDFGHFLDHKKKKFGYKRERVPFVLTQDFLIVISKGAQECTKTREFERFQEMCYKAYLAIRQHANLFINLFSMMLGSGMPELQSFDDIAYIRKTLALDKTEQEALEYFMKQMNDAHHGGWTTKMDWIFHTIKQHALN

| Compound | IC50 [1] [nM] | IC50 [2] [nM] | IC50 [3] [nM] | IC50 [4] [nM] | melting point [°C] |
| --- | --- | --- | --- | --- | --- |
| Cc1nc2ccc(-c3ccc(OCC4(NC(=O)C5CC5)COC4)cc3)nn2c1-c1cnc(N)c(C(F)(F)F)c1 [Example 110, Cyclopropanecarboxylic acid (3-{4-[3-(6-amino-5-trifluoromethyl-pyridin-3-yl)-2-methyl-imidazo[1,2-b]pyridazin-6-yl]-phenoxymethyl}-oxetan-3-yl)-amide] | 1590 | 8190 | 2080 | 126 | 191 to 193 |
| Cc1nc2ccc(-c3ccc(OCC4(N)COC4)cc3)nn2c1-c1cnc(N)c(C(F)(F)F)c1 [Example 111, 5-{6-[4-(3-Amino-oxetan-3-ylmethoxy)-phenyl]-2-methyl-imidazo[1,2-b]pyridazin-3-yl}-3-trifluoromethyl-pyridin-2-ylamine] | 895 | 2390 | 1190 | 131 | 198 to 200 |
| COC(=O)NC1(COc2ccc(-c3ccc4nc(C)c(-c5cnc(N)c(C(F)(F)F)c5)n4n3)cc2)COC1 [Example 115, (3-{4-[3-(6-Amino-5-trifluoromethyl-pyridin-3-yl)-2-methyl-imidazo[1,2-b]pyridazin-6-yl]-phenoxymethyl}-oxetan-3-yl)-carbamic acid methyl ester] | 1970 | > 9100 | 3160 | 295 | 202 to 204 |
| COc1cc(-c2ccc3nc(C)c(-c4cnc(N)c(C(F)(F)F)c4)n3n2)ccc1OCCN(CC(=O)N(C)C)CC(=O)N(C)C [Example 103, 2-[(2-{4-[3-(6-Amino-5-trifluoromethyl-pyridin-3-yl)-2-methyl-imidazol[1,2-b]pyridazin-6-yl]-2-methoxy-phenoxy}-ethyl)-dimethylcarbamoylmethyl-amino]-N,N-dimethyl-acetamide] | 362 | 1830 | 662 | 15 |  |
| COc1cc(-c2ccc3nc(C)c(-c4cnc(N)c(C(F)(F)F)c4)n3n2)ccc1OCCNC(=O)c1ccncc1 [Example 29] | 1590 | > 9100 | 2740 | 93 |  |
| CCS(=O)(=O)c1ccc(-c2c(C)nc3ccc(-c4ccc(OCCCN5CCCC5=O)cc4)nn23)cc1 [Example 107, 1-(3-{4-[3-(4-Ethanesulfonyl-phenyl)-2-methyl-imidazo[1,2-b]pyridazin-6-yl]-phenoxy}-propyl)-pyrrolidin-2-one] | 2990 | > 9100 | > 9100 | 4690 |  |

Continued, values first:

| IC50 [1] [nM] | IC50 [2] [nM] | IC50 [3] [nM] | IC50 [4] [nM] | melting point [°C] | Compound |
| --- | --- | --- | --- | --- | --- |
| 937 | 4240 | 4660 | 59 | 214 to 216 | Cc1nc2ccc(-c3ccc(OCC4(NC(=O)C(F)(F)F)COC4)cc3)nn2c1-c1cnc(N)c(C(F)(F)F)c1 [Example 116, N-(3-{4-[3-(6-Amino-5-trifluoromethyl-pyridin-3-yl)-2-methyl-imidazo[1,2-b]pyridazin-6-yl]-phenoxymethyl}-oxetan-3-yl)-2,2,2-trifluoro-acetamide] |
| 281 | 3790 | 1260 | 75 |  | COc1cc(-c2ccc3nc(C)c(-c4cnc(N)c(C(F)(F)F)c4)n3n2)ccc1OCCCN1CCCC1=O [Example 77] |
| > 9100 | > 9100 | 4500 | 1810 |  | COc1cc(-c2ccc3nc(C)c(-c4cnc(N)c(C(F)(F)F)c4)n3n2)ccc1OCCNC(=O)Nc1cccc(C#N)c1 [Example 47] |
| 2560 | > 9100 | > 9100 | 2990 |  | CCS(=O)(=O)c1ccc(-c2c(C)nc3ccc(-c4ccc(OC5CCNCC5)c(OC)c4)nn23)cc1 [Example 102, 3-(4-Ethanesulfonyl-phenyl)-6-[3-methoxy-4-(piperidin-4-yloxy)-phenyl]-2-methyl-imidazo[1,2-b]pyridazine] |
